Assays:
[1] = test system: Prevotella bivia ATCC 29303; test: MIC broth microdilution (Example 3); format: cell-based; conditions: planktonic, anaerobic
Protocol: (§1) The antimicrobial activity of CAms was also tested against Peptostreptococcus anaerobius ATCC 27337, Mobiluncus curtisii ATCC 35241 and Prevotella bivia ATCC 29303, all of which, in addition to G. vaginalis, are the most commonly isolated anaerobes from BV-infected women. These anaerobes were maintained within the anaerobic chamber and transferred daily into fresh sBHI. To prepare a stock solution, the CAm compounds were dissolved in ddH2O and incubated at 37° C. with shaking at 250 rpm for 10 min. Then, the solution was serially diluted twofold with sBHI broth to determine the MIC and with BHIG broth to identify the MIC-B/MBC-B against planktonic and biofilm cells, respectively. According to Clinical and Laboratory Standards Institute (CLSI 2010), the MIC is defined as the lowest concentration of antimicrobial compound producing no visible growth or complete inhibition of bacterial growth during 24 h. To determine MIC values, the broth microdilution assay was performed according to Algburi et al. (Algburi et al., 2015. Path Dis 73(5)) with minor modifications. Briefly, the overnight-grown cells were diluted with their suitable culture medium to approach ˜10^6 CFU/ml. The number of bacterial cells was identified using spot plate method (Turovskiy et al., 2012. Infect Dis Obstet Gynecol 2012:284762). The CAms were serially diluted twofold with sBHI into a non-tissue culture 96-well microplate plate (Falcon, Corning Incorporated, Corning, N.Y., USA) resulting in a final volume of 100 μl for each well. Aliquots of 100 μl of the diluted cell suspension (˜10^6 CFU/ml) were added to each well of a microplate that was treated with different concentrations of CAms. To avoid culture medium evaporation, 75 μl of mineral oil (Sigma-Aldrich, St. Louis, Mo.) was added to each treated well. The microplate was then transferred to the plate reader (Model 550, Bio-Rad Laboratories, Hercules, Calif., USA) and incubated at 37° C. for 24-36 h. The kinetic reading was statistically analyzed, and the MIC and sub-MIC of each CAm compound were determined.

[2] = test system: Mobiluncus curtisii ATCC 35241; test: MIC broth microdilution (Example 3); format: cell-based; conditions: planktonic, anaerobic
Protocol: as §1

[3] = test system: Peptostreptococcus anaerobius ATCC 27337; test: MIC broth microdilution (Example 3); format: cell-based; conditions: planktonic, anaerobic
Protocol: as §1

[4] = test system: Listeria monocytogenes Scott A; test: Broth microdilution assay (MIC); format: cell-based; conditions: BHI broth, 37° C., 24 h, no visible growth
Protocol: (§2) From the frozen stock (−80° C.), bacteria were inoculated into brain-hear infusion (BHI) agar (Becton Dickinson, Franklin Lakes, N.J.) and propagated under aerobic conditions at 37° C. for 24 h. After the incubation, one colony of each bacterial strain was transferred to BHI broth (Becton Dickinson, Franklin Lakes, N.J.) and sub-cultured at least twice into BHI before being used in experiments.
(§3) The minimal inhibitory concentration (MIC) of CAms were identified using a broth microdilution assay modified from previous studies. Briefly, the stock solutions of CAMs were first prepared by dissolving in double-distilled water (ddH2O) and then diluted in BHI broth at pre-determined concentrations. Further serial 2-fold dilutions were performed in a 96-well microplate (Becton Dickinson, Franklin Lakes, N.J.) with BHI broth. The inoculum concentration was adjusted to 5×10^6 CFU/mL with ultraviolet-visible (UV-vis) spectroscopy at 600 nm. An equal volume (100 μL) of bacterial suspension was added to each microplate well with a final volume of 200 μL. Plates were incubated at 37° C. for 24 h under aerobic conditions. The lowest CAm concentration that yielded no visible growth was recorded as the MIC. Cetyltrimethylammonium bromide (CTAB), a cationic amphiphile, served as a positive control that could mimic the proposed bactericidal mechanism of the newly synthesized tartaric acid-based compounds.
(§4) CAms were evaluated against five selected pathogenic microorganisms, including Gram-positive bacteria (i.e., S. aureus and L. monocytogenes) and Gram-negative bacteria (i.e., E. coli, S. typhimurium, and P. aeruginosa), using a turbidity-based microdilution method. MICs were taken as the lowest concentrations that inhibited the visible bacterial growth. […] The higher MIC values for the Gram-negative bacteria could be attributed to the presence of an additional lipopolysaccharide layer, which forms a hydrophilic barrier that could prevent penetration of the highly hydrophobic CAms.

[5] = test system: Pseudomonas aeruginosa ATCC 15442; test: Broth microdilution assay (MIC); format: cell-based; conditions: BHI broth, 37° C., 24 h, no visible growth
Protocol: as §2, §3, §4

[6] = test system: G. vaginalis ATCC 14019; test: MIC broth microdilution (Example 3); format: cell-based, Gardnerella vaginalis; conditions: planktonic, sBHI, anaerobic
Protocol: G. vaginalis ATCC 14019 strain was grown overnight in Brain Heart Infusion broth (Difco, Sparks, Md.) supplemented with 3% horse serum (sBHI) (JRH Biosciences, KS), while BHI supplemented with 1% glucose (BHIG) was used for biofilm formation assays. Each experiment using G. vaginalis was performed anaerobically (10% hydrogen, 5% carbon dioxide, and 85% nitrogen) within anaerobic glove boxes (Coy Laboratory Products, Inc., Grass Lake, Mich., USA). Three species of vaginal Lactobacillus were used in this study to evaluate the possible harmful effects of CAms on beneficial bacteria: Lactobacillus plantarum ATCC 39268, Lactobacillus rhamnosus 160 (provided by Dr. Aroutcheva, Rush University Medical Center) and Lactobacillus gasseri ATCC 33323; all were grown for 18-24 h in DeMan, Rogosa and Sharpe broth (MRS Difco B D, Franklin Lakes, N.J., USA) under aerobic conditions at 37° C. For lactobacilli biofilm formation, MRS broth supplemented with 1% glucose and 2% sucrose (Fisher Scientific, Waltham, Mass., USA) was utilized.
To prepare a stock solution, the CAm compounds were dissolved in ddH2O and incubated at 37° C. with shaking at 250 rpm for 10 min. Then, the solution was serially diluted twofold with sBHI broth to determine the MIC and with BHIG broth to identify the MIC-B/MBC-B against planktonic and biofilm cells, respectively.
According to Clinical and Laboratory Standards Institute (CLSI 2010), the MIC is defined as the lowest concentration of antimicrobial compound producing no visible growth or complete inhibition of bacterial growth during 24 h. To determine MIC values, the broth microdilution assay was performed according to Algburi et al. (Algburi et al., 2015. Path Dis 73(5)) with minor modifications. Briefly, the overnight-grown cells were diluted with their suitable culture medium to approach ˜10^6 CFU/ml. The number of bacterial cells was identified using spot plate method (Turovskiy et al., 2012. Infect Dis Obstet Gynecol 2012:284762). […]

| SMILES | MIC P. bivia [1] | MIC M. curtisii [2] | MIC Pep. anaerobius [3] | MIC L. monocytogenes (G+) [4] | MIC P. aeruginosa (G−) [5] | MIC G. vaginalis [6] |
| --- | --- | --- | --- | --- | --- | --- |
| CCCCCCCCCCOC(C(=O)NCCN)C(OCCCCCCCCCC)C(=O)NCCN.Cl.Cl (stereo not drawn) [5b] | 6.6 µM | 5.4 µM | 1.6 µM | 0.95 µg/mL | 3.9 µg/mL | 1.1 µM |
| CCCCCCCC(=O)OC(C(=O)NCCN)C(OC(=O)CCCCCCC)C(=O)NCCN.Cl.Cl (stereo not drawn) [8a] | 111.6 µM | 93.1 µM | 13.9 µM | 31.2 µg/mL | 31.2 µg/mL | 24.4 µM |
| CCCCCCCCCC(=O)OC(C(=O)NCCN)C(OC(=O)CCCCCCCCC)C(=O)NCCN.Cl.Cl (stereo not drawn) [8b] | 6.3 µM | 6.3 µM | 3.1 µM | 1.9 µg/mL | 3.9 µg/mL | 2.3 µM |
